Test results as given in patent publication US11560400B2, “Salts of diphosphate phosphoramidate of nucleosides as anticancer compounds” (NuCana plc, priority 2017, dated 2023).
Where a name gives a salt, the structure may show the parent alone. Read-outs that look alike come from different tables or passages of the source.

Columns and labels:
[1] = tested on: OVCAR 3; assay: CellTiterGlo cell viability assay, OVCAR 3; assay type: cell-based; conditions: Homo sapiens; for inhibition at 198 µM: percentage inhibition at the highest concentration tested, read-out: Top Inhibit; for EC50: absolute EC50, numeric values, read-out: Ab EC50
How it was run: (§1)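 Cells are exposed to compounds for 72 h at final concentrations of 198 μM down to 19.8 nM in 0.5% DMSO, then viability is quantified with CellTiterGlo.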

[2] = tested on: HT29; assay: CellTiterGlo cell viability assay, HT29; assay type: cell-based; conditions: Homo sapiens, HT29, 72 h; for EC50: absolute EC50, numeric values, read-out: Ab EC50; for inhibition at 198 µM: percentage inhibition at the highest concentration tested, read-out: Top Inhibit
How it was run: as §1

[3] = tested on: HepG2; assay: CellTiterGlo cell viability assay, HepG2; assay type: cell-based
How it was run: as §1

[4] = in vitro; conditions: human, pH 7.3; for half-life: hepatocytes
[5] = tested on: RPMI-8226; assay: CellTiterGlo cell viability assay, RPMI-8226; assay type: cell-based, Human
How it was run: as §1

[6] = tested on: CCRF-CEM; assay: CellTiterGlo cell viability assay, CCRF-CEM; assay type: cell-based; conditions: Homo sapiens, 72 h; for EC50: absolute EC50, numeric values, read-out: Ab EC50; for inhibition at 198 µM: percentage inhibition at the highest concentration tested, read-out: Top Inh
How it was run: as §1

[7] = tested on: MCF-7; assay: CellTiterGlo cell viability assay, MCF-7; assay type: cell-based; conditions: Homo sapiens, MCF-7, 72 h; for EC50: absolute EC50, numeric values, read-out: Ab EC50; for inhibition at 198 µM: percentage inhibition at the highest concentration tested, read-out: Top Inhibit
How it was run: as §1

[8] = tested on: Mia-Pa-Ca-2; assay: CellTiterGlo cell viability assay, Mia-Pa-Ca-2; assay type: cell-based; conditions: Homo sapiens, MIA PaCa-2, Mia-Pa-Ca-2, 72 h; for EC50: absolute EC50, read-out: Ab EC50; for inhibition at 198 µM: percentage inhibition at the highest concentration tested, read-out: Top Inhibit
Method: A subset of compounds of the invention were assayed for their cytotoxic activity in an array of different solid tumours and haematological malignancies using the following assay.
In vitro viability assay were performed to assess the effects of compounds on cell viability in selected cell lines over 72 h using the CellTiterGlo (CTG, Promega-G7573) assay. The tests were performed in duplicates with treatment of compounds at 9 points, 3.16 folds titration in 96 well plates over ˜72 h. The compound starting concentrations were 198 μM. Cell viability assay using CellTiterGlo in 96-well plate were performed. Compound treatment 72 h, standard growth conditions, duplicates. Compounds were dissolved to 40 mM with thawed […]. Compounds were serially diluted at 3.16 fold in thawed DMSO, and warmed to 37° C. before being dissolved in media (2 μL+200 μL). After compounds were dissolved in media, media containing compounds were warmed to 37° C. in incubator and then compounds in media were added to cell plates (50 μL+50 μL) in duplicates. The compounds' final concentrations were from 198 μM to 19.8 nM. All compound solubilities were checked and recorded again, then the plates were transferred to CO2 tissue culture incubator immediately and incubated for 3 days. DMSO final concentration is 0.5%. The parent nucleoside in each case was tested as a comparator, as was an exemplary ProTide. The drugs of the ProTide class that were tested were as follows:
The following cell lines were tested and are referred to in the Table 1 below:
In Tables 2, 3 and 4, ‘Ab EC50’ refers to the absolute EC50 and ‘Top inhibit’ refers to the percentage inhibition achieved at the highest concentration tested.

[9] = tested on: RL; assay: CellTiterGlo cell viability assay, RL; assay type: cell-based; conditions: Homo sapiens, 72 h; for EC50: absolute EC50, numeric values, read-out: Ab EC50; for inhibition at 198 µM: percentage inhibition at the highest concentration tested, read-out: Top Inh
How it was run: as §1

[10] = tested on: K562; assay: CellTiterGlo cell viability assay, K562; assay type: cell-based; conditions: Homo sapiens, K562, 72 h; for inhibition at 198 µM: percentage inhibition at the highest concentration tested, read-out: Top Inh; for EC50: absolute EC50, numeric values, read-out: Ab EC50
How it was run: as §1

[11] = tested on: MOLT-4; assay: CellTiterGlo cell viability assay, MOLT-4; assay type: cell-based; conditions: Homo sapiens, MOLT-4, 72 h; for inhibition at 198 µM: percentage inhibition at the highest concentration tested, read-out: Top Inh; for EC50: absolute EC50, numeric values, read-out: Ab EC50
How it was run: as §1

[12] = tested on: HL-60; assay: CellTiterGlo cell viability assay, HL-60; assay type: cell-based; conditions: Homo sapiens, HL-60, 72 h; for EC50: absolute EC50, numeric values, read-out: Ab EC50; for inhibition at 198 µM: percentage inhibition at the highest concentration tested, read-out: Top Inh
How it was run: as §1

[13] = Homo sapiens, HepG2, 72 h, absolute EC50, numeric values, read-out: Ab EC50
[14] = Homo sapiens, HepG2, 72 h, percentage inhibition at the highest concentration tested, read-out: Top Inhibit
[15] = Homo sapiens, RPMI-8226, 72 h, absolute EC50, numeric values, read-out: Ab EC50
[16] = Homo sapiens, RPMI-8226, 72 h, percentage inhibition at the highest concentration tested, read-out: Top Inh

Row | Compound | inhibition at 198 µM ([1]; OVCAR-3, 72 h) [%] | EC50 ([1]; OVCAR 3, 72 h) [nM] | EC50 ([2]; HT-29, 72 h) [nM] | inhibition at 198 µM ([2]; HT-29, 72 h) [%] | EC50 [3, 13] [µM] | inhibition at 198 µM [3, 14] [%] | half-life [4] [min] | EC50 [5, 15] [nM] | inhibition at 198 µM [5, 16] [%] | EC50 [6] [nM] | inhibition at 198 µM [6] [%] | EC50 ([7]; MCF7, 72 h) [µM] | inhibition at 198 µM ([7]; MCF7, 72 h) [%] | EC50 [8] [nM] | inhibition at 198 µM [8] [%] | EC50 [9] [µM] | inhibition at 198 µM [9] [%] | inhibition at 198 µM [10] [%] | EC50 [10] [µM] | inhibition at 198 µM [11] [%] | further results
1 | C[C@H](NP(=O)(Oc1cccc2ccccc12)OP(=O)(O)OC[C@H]1O[C@@H](n2cc(F)c(=O)[nH]c2=O)CC1O)C(=O)OCc1ccccc1 (stereo partly drawn) [Example 4, 5-Fluoro-2′-deoxyuridine-5′-O-[1-naphthyl-(benzoxy-L-alaninyl)] Diphosphate Triethylammonium Salt] | 67.5 | 2810 | 250 | 77 | > 198 | 48 | 15 | 50 | 95 | 30 | 97.1 | 15.8 | 66 | 110 | 67 | – | – | – | – | – | –
2 | C[C@H](NP(=O)(Oc1cccc2ccccc12)OP(=O)(O)OC[C@H]1O[C@@H](n2c(Cl)nc3c(N)ncnc32)[C@@H](O)C1O)C(=O)OCc1ccccc1 (stereo partly drawn) [Example 5, 8-Chloroadenosine-5′-O-[1-naphthyl-(benzoxy-L-alaninyl)]diphosphate Triethylammonium Salt] | – | – | 1410 | 76.5 | – | – | 18 | – | – | – | – | 1.69 | 88 | 430 | 87.6 | – | – | – | – | – | –
3 | C[C@H](NP(=O)(Oc1ccccc1)OP(=O)(O)OC[C@@H]1C[C@H](OP(=O)(O)OP(=O)(N[C@@H](C)C(=O)OCc2ccccc2)Oc2ccccc2)[C@H](n2cnc3c(N)ncnc32)O1)C(=O)OCc1ccccc1 (stereo partly drawn) [Example 7, 3′-Deoxyadenosine-5′,2′-Bis-O-[phenyl(benzoxy-L-alaninyl)]-diphosphate Triethylammonium Salt] | – | – | 7790 | 79 | – | – | 27 | 1600 | 98 | – | – | – | – | 3320 | 98.9 | 11.1 | 93 | 94 | 9.16 | 90 | EC50 [11]: 25.3 µM; EC50 [12]: 6.97 µM; inhibition at 198 µM [12]: 100%
4 | C[C@H](NP(=O)(Oc1ccccc1)OP(=O)(O)OC[C@H]1O[C@@H](n2ccc(N)nc2=O)C(F)(F)C1O)C(=O)OCc1ccccc1 (stereo partly drawn) [Example 8, 2′-Deoxy-2′,2′-difluoro-D-cytidine-5′-O-[phenyl(benzoxy-L-alaninyl)] Diphosphate Triethylammonium Salt] | 48.5 | > 198000 | 480 | 62 | 83.1 | 52 | 27 | – | – | 40 | 99.9 | 0.07 | 52 | 70 | 79 | 0.2 | 66.5 | 29 | > 198 | 84 | EC50 [11]: 0.009 µM; EC50 [12]: 0.08 µM; inhibition at 198 µM [12]: 98%
5 | O=c1[nH]c(=O)n([C@H]2C[C@H](O)[C@@H](CO)O2)cc1F [FUDR, 5-fluoro-2′-deoxyuridine, reference compound] | – | 2320 | – | – | – | – | – | – | – | 40 | 91.9 | – | – | 350 | 90 | – | – | – | – | – | inhibition at 198 µM ([1]; OVCAR 3, 72 h): 66%; EC50 ([2]; HT-29): 220 nM; inhibition at 198 µM ([2]; HT-29): 82%; EC50 ([3]; Homo sapiens; HepG2, 72 h, absolute EC50, numeric values; read-out: Ab EC50): 84 µM; inhibition at 198 µM ([3]; Homo sapiens; HepG2, 72 h, percentage inhibition at the highest concentration tested; read-out: Top Inhibit): 61%; half-life at 1 μM ([4]; pooled cryopreserved hepatocytes): 69 min; EC50 ([5]; Homo sapiens; RPMI-8226, 72 h, absolute EC50, numeric values; read-out: Ab EC50): 110 nM; inhibition at 198 µM ([5]; Homo sapiens; RPMI-8226, 72 h, percentage inhibition at the highest concentration tested; read-out: Top Inh): 99%; EC50 ([7]; MCF7): 7.23 µM; inhibition at 198 µM ([7]; MCF7): 73%
